# Reference: patent US20250049946A1, “SULFONATO RESORCINARENE-COMPLEXED FLUOROQUINOLONES AND METHODS OF USE” (University of Cincinnati, priority 2023, published 2025)
# Columns and labels:
# [1] = test system: P. aeruginosa; assay: in vitro antibacterial activity (MIC assay, 96-well, absorbance at 600 nm); type: cell-based, Pseudomonas aeruginosa; conditions: for inhibition of bacterial cells: at higher concentration, P. aeruginosa
# Description: (§1) The in vitro antibacterial activity was tested using a Gram-positive bacterial pathogen, S. aureus, and sensitive and resistant strains of a Gram-negative bacterial pathogen, P. aeruginosa using a high-throughput format in a 96-well microtiter plate, as described previously. Briefly, an inoculum of the test organism was grown to mid-log phase in a Luria broth (LB) medium containing 10 g/L tryptone, 5 g/L yeast extract, and 10 g/L sodium chloride. A 50 μL aliquot of the 100-fold diluted bacterial inoculum was placed in each test well. […]. All experiments were performed in triplicate. For each measurement, three samples in each replicate were analyzed and data were recorded as mean±standard deviation (SD). A paired two-tailed t-test was employed for mean comparison, with significance determined at p<0.05. The dcata analysis was conducted using the Excel program.
# (§2) The antibacterial effectiveness of complexed FQs was assessed in comparison to uncomplexed FQs against Gram-positive Staphylococcus aureus (S. aureus) and Gram-negative Pseudomonas aeruginosa (P. aeruginosa) through a minimum inhibitory concentration (MIC) assay conducted at various concentrations. […] The percentage growth inhibition of bacterial cells treated with complexed and uncomplexed FQs was determined by comparing with the untreated control (FIGS. 13A-13C). The concentrations tested for P. aeruginosa and S. aureus varied based on the MIC of individual antibiotics. […]
# [2] = test system: S. aureus; assay: as above; type: cell-based, Staphylococcus aureus; conditions: for inhibition of bacterial cells: at higher concentration, S. aureus
# Description: as §1, §2
# [3] = partition coefficient (Ko/w) n-octanol / phosphate buffer; type: physicochemical; conditions: octanol / phosphate buffer pH 7.4, 25 °C, 24 h; complexes with 10 times higher host stock
Compound,"killing of P. aeruginosa bacteria ([1]; 4 μg/mL, 24 h, FIG. 13A) [%]",inhibition of bacterial cells [1] [%],"killing of S. aureus ([2]; 12 μg/mL, 24 h, FIG. 13A) [%]",inhibition of bacterial cells [2] [%],log P (experimental partition coefficient Ko/w) [3],"inhibitory effect on P. aeruginosa cells ([1]; […] (so in the source), 24 h, FIG. 13B) [%]","inhibition at 128 µg/mL ([2]; Staphylococcus aureus, 128 μg/mL, 24 h, FIG. 13B, read-out: inhibitory effect on S. aureus cells) [%]"
"O=C(O)c1cn(C2CC2)c2cc(N3CCNCC3)c(F)cc2c1=O [CIPRO, ciprofloxacin]",100.67±0.39,90,98.30±0.26,90,,,
"C[C@H]1COc2c(N3CCN(C)CC3)c(F)cc3c(=O)c(C(=O)O)cn1c23 [LEVO, levofloxacin]",,90,,90,−0.41,,
"CCn1cc(C(=O)O)c(=O)c2cc(F)c(N3CCNCC3)cc21 [NOR, norfloxacin]",,90,,90,,100.43±0.17,97.9 ± 0.38
"CC1c2cc(c(O)c(CS(=O)(=O)O)c2O)C(C)c2cc(c(O)c(CS(=O)(=O)O)c2O)C(C)c2cc(c(O)c(CS(=O)(=O)O)c2O)C(C)c2cc1c(O)c(CS(=O)(=O)O)c2O (stereo not drawn) [SRsC1, sulfonato-C-methylresorcin[4]arene]",,,,,−0.99,,
